Key:
[1] = test system: Sp protein binding to GC-rich VEGF promoter oligonucleotide; assay: Gel mobility shift of nuclear extracts from L3.6pl cells with VEGF32P; type: cell-based, human; details: nuclear extracts of L3.6pl cells treated with 50 μM for 48 hr
Procedure: Vascular endothelial growth factor and VEGFR1 oligonucleotides are synthesized and annealed, and 5 pmol aliquots are 5′-end-labeled using T4 kinase and [y-^32P]ATP. After the reaction sample was incubated 20 min on ice, and antibodies against Sp1, Sp3, and Sp4 proteins are added and incubated another 20 min on ice. Protein-DNA complexes are resolved by 5% polyacrylamide gel electrophoresis as previously described (Abdelrahim et al, 2004; Abdelrahim et al, 2005, Abdelrahim et al, submitted 2005).
Panc1 or L3.6pl cells were treated with DMSO, 50 μM tolfenamic acid or 50 μM ampiroxicam for 48 hr. Nuclear extracts from these cells were isolated, incubated with VEGF^32P and analyzed in gel mobility shift assays.
The radiolabeled oligonucleotide contained a GC-rich region (−66 to −47) from the VEGF promoter that binds Sp proteins.

[2] = test system: Sp protein interactions with VEGFR1 promoter sequences; assay: Gel mobility shift of Panc-1 nuclear extracts with VEGFR1 32P and GC/SP 32P; type: cell-based; details: nuclear extracts of Panc-1 cells treated with 50 μM for 48 h
Procedure: The specific Sp protein bands and antibody supershifted complexes are indicated with arrows.
Vascular endothelial growth factor and VEGFR1 oligonucleotides are synthesized and annealed, and 5 pmol aliquots are 5′-end-labeled using T4 kinase and [y-^32P]ATP. After the reaction sample was incubated 20 min on ice, and antibodies against Sp1, Sp3, and Sp4 proteins are added and incubated another 20 min on ice.
FIGS. 16A and 16B compare the gel mobility shift and antibody supershift patterns of nuclear extracts from Panc-1 cells bound to the proximal region of the VEGFR1 promoter containing both GC-rich and Egr-1 sites (VEGFR1^32P) or GC-rich sites alone (GC/SP^32P).

VEGFR1 mRNA = VEGFR1 mRNA in Panc-1 cells, semi-quantitative RT-PCR; type: cell-based; details: 50 μM, 24 h
Procedure: FIGS. 17A-17D show effects of tolfenamic acid on the VEGFR1 promoter and mRNA expression. Transfection with pVEGFR1-A (FIG. 17A), pVEGFR1-B (FIG. 17B), and pVEGFR1-C (FIG. 17C). Panc-1 cells were transfected with pVEGFR1 constructs, treated with DMSO, 50 μM ampiroxicam, or 50 μM tolfenamic acid, and luciferase activity was determined as described in Materials and Methods. […] Results are shown for a single experiment and similar data was obtained in replicate experiments.

L3.6pl cells = assay: Cell proliferation assay, L3.6pl cells; type: cell-based, human
Procedure: FIGS. 7A-7D compares effects of tolfenamic acid and ampiroxicam on pancreatic cancer cell proliferation. […] Panc1, Panc28 and L3.6pl cells are seeded in DMEM/F12 media with 5% FBS and treated the next day with either vehicle (DMSO) or with the indicated compounds' concentrations. Cells are counted at the indicated times using a Z1™ COULTER COUNTER® cell counter. Each experiment is carried out in triplicate and results expressed as means ±SD for each determination.

[3] = test system: Bic-1 esophageal cancer cells; assay: Western blot of Sp and Sp-dependent proteins in BIC-1 esophageal cancer cells; type: cell-based; details: Bic-1 cells, 25-100 μM
Procedure: Cells are washed once with phosphate buffered saline PBS and collected by scraping in 200 μL of lysis buffer [50 mM HEPES, 0.5M sodium chloride, 1.5 mM magnesium chloride, 1 mM EGTA, 10% (v/v) glycerol, 1% Triton X-100, 5 μL/ml of Protease Inhibitor Cocktail (Sigma)]. The lysates from the cells are incubated on ice for 1 hr with intermittent vortexing followed by centrifugation at 40,000 g for 10 min at 4° C. Equal amounts of protein (60 μg) from each treatment group are diluted with loading buffer, boiled and loaded onto 10 and 12.5% SDS-polyacrylamide gel. For vascular endothelial growth factor immunoblots, 100 μg of protein are used. Samples are electrophoresed, transferred to membranes, and proteins detected by incubation with polyclonal primary antibodies Sp1, Sp3, Sp4, HDAC, VEGF (a-20), c-Met, surviving, VEGF, cleaved PARP, and β-tubulin (H-235) followed by blotting with appropriate horseradish peroxidase-conjugated secondary antibody as previously described (Abdelrahim et al, 2004). After autoradiography, band intensities are determined by a scanning laser densitometer (Sharp Electronics Corporation, Mahwah, N.J.) using ZERO-D SCANALYTICS software (Scanalytics Corporation, Billerica, Mass.).

[4] = test system: SEG-1 esophageal cancer cells; assay: Cell proliferation assay, SEG-1 esophageal cancer cells; type: cell-based; parameters: dose or concentration left out as unconfirmed; details: DMSO control
[5] = test system: Bic-1 esophageal cancer cells; assay: Cell proliferation assay, BIC-1 esophageal cancer cells; type: cell-based; parameters: dose or concentration left out as unconfirmed; details: tolfenamic acid, DMSO control

## Cc1c(Cl)cccc1Nc1ccccc1C(=O)O [tolfenamic acid]
[1]
  Sp3 and Sp1/Sp4 retarded bands with VEGF32P: retarded bands were decreased
[2]
  Sp1, Sp3, and Sp4-DNA retarded band intensity with VEGFR1 32P and GC/SP 32P: retarded band intensity was markedly decreased
VEGFR1 mRNA
  VEGFR1 mRNA levels: decreased VEGFR1 mRNA levels
L3.6pl cells
  potency as inhibitor of pancreatic cell growth relative to ampiroxicam: more potent as an inhibitor of pancreatic cell growth than ampiroxicam
L3.6pl cells; 25-100 μM, 6 days
  cell growth: significantly (p<0.05) inhibited cell growth
[3]
  apoptosis as shown by PARP cleavage: induced apoptosis
  expression of Sp-dependent proteins VEGF, survivin, and c-Met: decreased expression of Sp-dependent proteins vascular endothelial growth factor (VEGF), survivin, and c-Met
  protein expression of Sp1, Sp3, and Sp4: decreased protein expression of Sp1, Sp3, and Sp4
[4]
  growth of SEG-1 esophageal cancer cells: inhibits growth
[5]
  growth of BIC-1 esophageal cancer cells: inhibits growth
